Marks after values point to notes of the source that are not given here.
Tests used:
thrombin generation = assay: Thrombin generation by calibrated automated thrombogram (CAT) in plasma treated ex vivo; format: biochemical, human; conditions: for Delta ETP (%) / Delta Lagtime (%) / Delta Peak (%) / Delta Rate (%) / Delta ttPeak (%): enoxaparin 0.13 U/mL, median change vs baseline
Text: (§1) Citrated plasma samples were thawed immediately prior to use. First, plasma from healthy, uninjured volunteers was used to optimize ex vivo dosing of enoxaparin. […] Given that the inventors spiked plasma with an enoxaparin dose of 0.13 IU/mL, our target anti-FXa level in response to enoxaparin was defined as 0.13 IU/mL. The responses to enoxaparin between healthy uninjured volunteers and trauma patients were compared by treating all plasma samples ex vivo with 0.13 IU/mL of enoxaparin. Trauma patient samples were additionally supplemented with AT using either FFP at a dose of 30% volume or AT concentrate in the form of THROMBATE III®, provided by Grifols, up to 80%, 120%, 150%, 180%, and 200% final concentration based on baseline values. This was done in an effort to improve patient plasma responses to enoxaparin to the levels observed in healthy controls. Similar to our previous work, the inventors chose FFP at a dose of 30% volume to model the effects of transfusing six units of plasma. Calculations were based on the activity (IUs) provided by the manufacturer for a given lot of THROMB ATE III® (approximately 500 IUs/10 mL) and the patient's baseline AT activity levels. AT supplementation was confirmed by measuring AT activity using ACL-TOP. Thrombin generation and anti-FXa levels were measured to assess the response to enoxaparin and supplementation with AT. Healthy volunteer plasma served as an uninjured control for normal AT, anti-FXa, and thrombin generation levels before and after treatment with enoxaparin.
(§2) AT activity and anti-FXa levels were determined chromogenically using an ACL-TOP Coagulation Analyzer (Instrumentation Laboratory, Bedford Mass.). Thrombin generation was measured using a calibrated automated thrombogram (CAT) (Thermo Fisher Scientific, Waltham Mass.) as previously described. Relevant parameters resulting from CAT analysis include lag time (the time to initiation of thrombin generation; min), peak (the highest amount of thrombin generated; nM), time to peak [ttpeak] (the time it takes to achieve the peak; min), endogenous thrombin potential [ETP] (the total amount of thrombin generated over time; […]), and rate (the velocity of thrombin generation dictated by the slope of the thrombin generation curve; nM/min).

FXa = assay: Anti-FXa levels determined chromogenically (ACL-TOP) in plasma treated ex vivo with enoxaparin; format: biochemical, human; conditions: for Anti FXa levels (IU/mL): median
Text: as §1, §2

[1] = Trauma Patients (N = 100) plasma
[2] = Healthy Donors (N = 15) plasma, enoxaparin 0.13 U/mL
[3] = No PE patients (N = 46) plasma, enoxaparin 0.13 U/mL
[4] = PE patients (N = 54) plasma, enoxaparin 0.13 U/mL
[5] = Trauma Patients (N = 100) plasma, enoxaparin 0.13 U/mL

enoxaparin
Delta ETP (%) (thrombin generation; Healthy Donors (N = 15) plasma): −43% | Delta Lagtime (%) (thrombin generation; Healthy Donors (N = 15) plasma): 6.6% | Delta Peak (%) (thrombin generation; Healthy Donors (N = 15) plasma): −55% | Delta Rate (%) (thrombin generation; Healthy Donors (N = 15) plasma): −65% | Delta ttPeak (%) (thrombin generation; Healthy Donors (N = 15) plasma): 17% | Delta ETP (%) (thrombin generation; No PE patients (N = 46) plasma): −15.6% | Delta Lagtime (%) (thrombin generation; No PE patients (N = 46) plasma): 6.6% | Delta Peak (%) (thrombin generation; No PE patients (N = 46) plasma): −30.6% | Delta Rate (%) (thrombin generation; No PE patients (N = 46) plasma): −45.4% | Delta ttPeak (%) (thrombin generation; No PE patients (N = 46) plasma): 13.0% | Delta ETP (%) (thrombin generation; PE patients (N = 54) plasma): −13.2% | Delta Lagtime (%) (thrombin generation; PE patients (N = 54) plasma): 7.9% | Delta Peak (%) (thrombin generation; PE patients (N = 54) plasma): −20.7% | Delta Rate (%) (thrombin generation; PE patients (N = 54) plasma): −34.2% | Delta ttPeak (%) (thrombin generation; PE patients (N = 54) plasma): 10.7% | Delta ETP (%) (thrombin generation; [1]): −14% | Delta Lagtime (%) (thrombin generation; [1]): 7.9% | Delta Peak (%) (thrombin generation; [1]): −24% | Delta Rate (%) (thrombin generation; [1]): −39% | Delta ttPeak (%) (thrombin generation; [1]): 12% | reduction in peak thrombin (thrombin generation; plasma of patients who did develop PE, ex vivo enoxaparin): 20.7% | median reduction in peak thrombin (thrombin generation; plasma of patients who did not develop PE, ex vivo enoxaparin): 30.6% | Rate Anti FXa ≥ 0.13 (number) (FXa; [2]): 15 | Rate Anti FXa ≥ 0.13 (percentage) (FXa; [2]): (100%) | Anti FXa levels (IU/mL) (FXa; [2]): 0.16 IU/mL | Rate Anti FXa ≥ 0.13 (number) (FXa; [3]): 26 | Rate Anti FXa ≥ 0.13 (percentage) (FXa; [3]): (57%) | Anti FXa levels (IU/mL) (FXa; [3]): 0.14 IU/mL | Rate Anti FXa ≥ 0.13 (number) (FXa; [4]): 24 | Rate Anti FXa ≥ 0.13 (percentage) (FXa; [4]): (44%) | Anti FXa levels (IU/mL) (FXa; [4]): 0.13 IU/mL | Rate Anti FXa ≥ 0.13 (number) (FXa; [5]): 59 | Rate Anti FXa ≥ 0.13 (percentage) (FXa; Trauma Patients (N = 100) plasma, enoxaparin 0.13 U/mL alone): (59%)* | Rate Anti FXa ≥ 0.13 (percentage) (FXa; Trauma Patients (N = 100) plasma, enoxaparin 0.13 U/mL alone, listed as enoxaparin): 59% | Anti FXa levels (IU/mL) (FXa; [5]): 0.13 IU/mL

From patent publication US20210308228A1, “METHOD FOR REDUCING THE OCCURRENCE OF THROMBOSIS OR THROMBOEMBOLISM” (THE BOARD OF REGENTS OF THE UNIVERSITY OF TEXAS SYSTEM, priority 2020, published 2021)
